# Measured values as given in patent US5672715A, “Herbicidal substituted 3-aryl-pyrazoles” (Monsanto Company, priority 1995, dated 1997).
# Like-named read-outs stand apart in the source and are kept apart here.
# Experiments:
# Assay type in all cases: in vivo
# Barnyardgrass = experiment: pre-emergence herbicide test; conditions: Echinochloa crus-galli, pre-emergence, read-out: % plant inhibition
# Summary of the method: (§1)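 Known amounts of active ingredient went into the cover soil over seeds sown in pans, either before or after the layer was spread. An initial 1/4 inch overhead irrigation was given in some cases; otherwise pans were subirrigated. Rating was % inhibition at ~14 days.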
# Morning Glory [1] = experiment: pre-emergence herbicide test; conditions: Ipomoea, pre-emergence, read-out: % plant inhibition
# Summary of the method: as §1
# Cocklebur = experiment: pre-emergence herbicide test; conditions: Xanthium strumarium, pre-emergence, read-out: % plant inhibition
# Summary of the method: as §1
# Corn [2] = experiment: pre-emergence herbicide test; conditions: Zea mays, pre-emergence, read-out: % plant inhibition
# Summary of the method: as §1
# Yellow Foxtail [3] = experiment: pre-emergence herbicide test; conditions: Setaria, read-out: % plant inhibition
# Summary of the method: as §1
# Rice = experiment: pre-emergence herbicide test; conditions: Oryza sativa, read-out: % plant inhibition
# Summary of the method: as §1
# Velvetleaf [4] = experiment: pre-emergence herbicide test; conditions: Abutilon theophrasti, pre-emergence, read-out: % plant inhibition
# Summary of the method: as §1
# Soybean = experiment: pre-emergence herbicide test; conditions: Glycine max, pre-emergence, read-out: % plant inhibition
# Summary of the method: as §1
# Yellow Nutsedge [5] = experiment: pre-emergence herbicide test; conditions: Cyperus, read-out: % plant inhibition
# Summary of the method: as §1
# Common Chickweed = experiment: post-emergence herbicide test; conditions: post-emergence, read-out: % plant inhibition
# Summary of the method: (§2)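 Greenhouse plants grown from seeds in topsoil were treated two to three weeks after sowing with a spray solution or suspension of test chemical with about 0.4% by volume emulsifier, applied at 1870 L/Ha and 170.3 kPa. Percent inhibition per species was the endpoint.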
# Morning Glory [6] = experiment: post-emergence herbicide test; conditions: Ipomoea, post-emergence, read-out: % plant inhibition
# Summary of the method: as §2
# Corn [7] = experiment: post-emergence herbicide test; conditions: Zea mays, post-emergence, read-out: % plant inhibition
# Summary of the method: as §2
# Yellow Foxtail [8] = experiment: post-emergence herbicide test; conditions: Setaria, read-out: % plant inhibition
# Summary of the method: as §2
# Velvetleaf [9] = experiment: post-emergence herbicide test; conditions: Abutilon theophrasti, post-emergence, read-out: % plant inhibition
# Summary of the method: as §2
# Blackgrass = experiment: post-emergence herbicide test; conditions: Alopecurus myosuroides, post-emergence, read-out: % plant inhibition; for inhibition at 7.95803 g/ha: 0.0071 lb/A; for inhibition at 40.0143 g/ha: 0.0357 lb/A; for inhibition at 200.072 g/ha: 0.1785 lb/A; for inhibition at 1000.92 g/ha: 0.893 lb/A
# Summary of the method: as §2
# Yellow Nutsedge [10] = experiment: post-emergence herbicide test; conditions: Cyperus, read-out: % plant inhibition
# Summary of the method: as §2
smiles,measurement,setting,value
COc1cc(-c2nn(C)c(C(F)(F)F)c2C)c(F)cc1[N+](=O)[O-] [Compound 36],inhibition at 7.95803 g/ha,Barnyardgrass; 0.0071 lb/A,0%
same,inhibition at 40.0143 g/ha,Barnyardgrass; 0.0357 lb/A,20%
same,inhibition at 200.072 g/ha,Barnyardgrass; 0.1785 lb/A,90%
same,inhibition at 1000.92 g/ha,Barnyardgrass; 0.893 lb/A,100%
same,inhibition at 7.95803 g/ha,Morning Glory [1]; 0.0071 lb/A,0%
same,inhibition at 40.0143 g/ha,Morning Glory [1]; 0.0357 lb/A,10%
same,inhibition at 200.072 g/ha,Morning Glory [1]; 0.1785 lb/A,60%
same,inhibition at 1000.92 g/ha,Morning Glory [1]; 0.893 lb/A,90%
same,inhibition at 7.95803 g/ha,Cocklebur; 0.0071 lb/A,0%
same,inhibition at 40.0143 g/ha,Cocklebur; 0.0357 lb/A,20%
same,inhibition at 200.072 g/ha,Cocklebur; 0.1785 lb/A,0%
same,inhibition at 1000.92 g/ha,Cocklebur; 0.893 lb/A,85%
same,inhibition at 7.95803 g/ha,Corn [2]; 0.0071 lb/A,0%
same,inhibition at 40.0143 g/ha,Corn [2]; 0.0357 lb/A,10%
same,inhibition at 200.072 g/ha,Corn [2]; 0.1785 lb/A,55%
same,inhibition at 1000.92 g/ha,Corn [2]; 0.893 lb/A,90%
same,inhibition at 7.95803 g/ha,Yellow Foxtail [3]; 0.0071 lb/A,0%
same,inhibition at 40.0143 g/ha,Yellow Foxtail [3]; 0.0357 lb/A,15%
same,inhibition at 200.072 g/ha,Yellow Foxtail [3]; 0.1785 lb/A,98%
same,inhibition at 1000.92 g/ha,Yellow Foxtail [3]; 0.893 lb/A,100%
same,inhibition at 7.95803 g/ha,Rice; 0.0071 lb/A,0%
same,inhibition at 40.0143 g/ha,Rice; 0.0357 lb/A,0%
same,inhibition at 200.072 g/ha,Rice; 0.1785 lb/A,0%
same,inhibition at 1000.92 g/ha,Rice; 0.893 lb/A,65%
same,inhibition at 7.95803 g/ha,Velvetleaf [4]; 0.0071 lb/A,20%
same,inhibition at 40.0143 g/ha,Velvetleaf [4]; 0.0357 lb/A,20%
same,inhibition at 200.072 g/ha,Velvetleaf [4]; 0.1785 lb/A,98%
same,inhibition at 1000.92 g/ha,Velvetleaf [4]; 0.893 lb/A,100%
same,inhibition at 7.95803 g/ha,Soybean; 0.0071 lb/A,0%
same,inhibition at 40.0143 g/ha,Soybean; 0.0357 lb/A,0%
same,inhibition at 200.072 g/ha,Soybean; 0.1785 lb/A,0%
same,inhibition at 1000.92 g/ha,Soybean; 0.893 lb/A,10%
same,inhibition at 7.95803 g/ha,Yellow Nutsedge [5]; 0.0071 lb/A,0%
same,inhibition at 40.0143 g/ha,Yellow Nutsedge [5]; 0.0357 lb/A,0%
same,inhibition at 200.072 g/ha,Yellow Nutsedge [5]; 0.1785 lb/A,0%
same,inhibition at 1000.92 g/ha,Yellow Nutsedge [5]; 0.893 lb/A,0%
same,inhibition at 7.95803 g/ha,Common Chickweed; 0.0071 lb/A,85%
same,inhibition at 40.0143 g/ha,Common Chickweed; 0.0357 lb/A,15%
same,inhibition at 200.072 g/ha,Common Chickweed; 0.1785 lb/A,35%
same,inhibition at 1000.92 g/ha,Common Chickweed; 0.893 lb/A,65%
same,inhibition at 7.95803 g/ha,Morning Glory [6]; 0.0071 lb/A,20%
same,inhibition at 40.0143 g/ha,Morning Glory [6]; 0.0357 lb/A,40%
same,inhibition at 200.072 g/ha,Morning Glory [6]; 0.1785 lb/A,85%
same,inhibition at 1000.92 g/ha,Morning Glory [6]; 0.893 lb/A,100%
same,inhibition at 7.95803 g/ha,Corn [7]; 0.0071 lb/A,0%
same,inhibition at 40.0143 g/ha,Corn [7]; 0.0357 lb/A,25%
same,inhibition at 200.072 g/ha,Corn [7]; 0.1785 lb/A,30%
same,inhibition at 1000.92 g/ha,Corn [7]; 0.893 lb/A,40%
same,inhibition at 7.95803 g/ha,Yellow Foxtail [8]; 0.0071 lb/A,0%
same,inhibition at 40.0143 g/ha,Yellow Foxtail [8]; 0.0357 lb/A,10%
same,inhibition at 200.072 g/ha,Yellow Foxtail [8]; 0.1785 lb/A,45%
same,inhibition at 1000.92 g/ha,Yellow Foxtail [8]; 0.893 lb/A,70%
same,inhibition at 7.95803 g/ha,Velvetleaf [9]; 0.0071 lb/A,65%
same,inhibition at 40.0143 g/ha,Velvetleaf [9]; 0.0357 lb/A,70%
same,inhibition at 200.072 g/ha,Velvetleaf [9]; 0.1785 lb/A,75%
same,inhibition at 1000.92 g/ha,Velvetleaf [9]; 0.893 lb/A,100%
same,inhibition at 7.95803 g/ha,Blackgrass; Table 4a,0%
same,inhibition at 7.95803 g/ha,Blackgrass; Table 5a,0%
same,inhibition at 40.0143 g/ha,Blackgrass; Table 4a,0%
same,inhibition at 40.0143 g/ha,Blackgrass; Table 5a,10%
same,inhibition at 200.072 g/ha,Blackgrass; Table 4a,0%
same,inhibition at 200.072 g/ha,Blackgrass; Table 5a,25%
same,inhibition at 1000.92 g/ha,Blackgrass; Table 4a,0%
same,inhibition at 1000.92 g/ha,Blackgrass; Table 5a,60%
same,inhibition at 7.95803 g/ha,Yellow Nutsedge [10]; 0.0071 lb/A,0%
same,inhibition at 40.0143 g/ha,Yellow Nutsedge [10]; 0.0357 lb/A,0%
same,inhibition at 200.072 g/ha,Yellow Nutsedge [10]; 0.1785 lb/A,0%
same,inhibition at 1000.92 g/ha,Yellow Nutsedge [10]; 0.893 lb/A,25%
